Experimental data taken from BindingDB's records for doi:10.1124/jpet.103.059675 (Wyeth Research, 2004).

Legend:
[1] = target: Disintegrin and metalloproteinase domain-containing protein 17 (Homo sapiens, UniProt P78536); assay: TACE Inhibition Assay; conditions: pH 7.4; 22 °C
Description: Compounds were tested for their ability to inhibit the cleavage of the substrate by the purified enzyme in a fluorescence-based fluorescence resonance energy transfer (FRET) assay. The human TACE protein was pretreated with the inhibitors for 10 min at room temperature. The reaction was initiated by the addition of pro-TNF-alpha peptide to the TACE protein, and the increase in fluorescence was monitored at excitation of 320 nm and emission of 420 nm over a period of 10 min. Under this assay condition, the IC50 value is very close to the Ki value.

[2] = target: Matrix metalloproteinase-14 (Homo sapiens, UniProt P50281); assay: MMP Inhibition Assay; conditions: pH 7.4; 22 °C
Description: (§1) A continuous assay was used in which the substrate is a synthetic peptide containing a fluorescent group (7-methoxycoumarin), which is quenched by energy transfer to a 2,4-dinitrophenyl group. […] The enzymatic reactions were initiated by adding the substrate, and the initial rate of the cleavage reaction was determined immediately after substrate addition.

Matrilysin = target: T1, Matrilysin (Homo sapiens, UniProt P09237); assay: MMP Inhibition Assay; conditions: pH 7.4; 22 °C
T1 sequence (P09237 whole entry): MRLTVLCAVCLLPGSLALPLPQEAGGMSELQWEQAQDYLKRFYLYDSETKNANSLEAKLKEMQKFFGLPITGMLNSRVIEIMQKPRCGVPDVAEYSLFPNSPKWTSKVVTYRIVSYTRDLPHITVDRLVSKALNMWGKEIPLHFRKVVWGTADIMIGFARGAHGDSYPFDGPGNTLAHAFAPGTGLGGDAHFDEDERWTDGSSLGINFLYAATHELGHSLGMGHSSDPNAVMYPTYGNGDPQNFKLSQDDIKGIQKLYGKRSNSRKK
Description: as §1

[3] = target: 72 kDa type IV collagenase (Homo sapiens, UniProt P08253); assay: MMP Inhibition Assay; conditions: pH 7.4; 22 °C
Description: as §1

Interstitial collagenase = target: T2, Interstitial collagenase (Homo sapiens, UniProt P03956); assay: MMP Inhibition Assay; conditions: pH 7.4; 22 °C
T2 sequence (P03956 whole entry): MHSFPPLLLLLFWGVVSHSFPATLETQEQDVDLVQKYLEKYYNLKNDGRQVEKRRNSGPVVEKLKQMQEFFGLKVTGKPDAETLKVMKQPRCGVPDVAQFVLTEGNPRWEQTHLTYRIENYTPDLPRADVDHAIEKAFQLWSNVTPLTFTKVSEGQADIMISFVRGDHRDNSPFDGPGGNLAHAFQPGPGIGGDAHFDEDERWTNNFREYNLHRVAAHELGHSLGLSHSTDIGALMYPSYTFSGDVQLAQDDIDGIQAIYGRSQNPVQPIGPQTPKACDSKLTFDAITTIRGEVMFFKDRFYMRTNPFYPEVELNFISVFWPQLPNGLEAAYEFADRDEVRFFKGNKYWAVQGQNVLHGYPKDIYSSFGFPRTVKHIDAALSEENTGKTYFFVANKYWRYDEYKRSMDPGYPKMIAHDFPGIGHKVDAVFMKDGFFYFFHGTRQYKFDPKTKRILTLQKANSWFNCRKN
Description: as §1

[4] = target: T3, A disintegrin and metalloproteinase with thrombospondin motifs 4 (Homo sapiens, UniProt O75173); assay: Aggrecanase-1 Inhibition Assay; conditions: pH 7.5; 37 °C
T3 sequence (O75173 whole entry): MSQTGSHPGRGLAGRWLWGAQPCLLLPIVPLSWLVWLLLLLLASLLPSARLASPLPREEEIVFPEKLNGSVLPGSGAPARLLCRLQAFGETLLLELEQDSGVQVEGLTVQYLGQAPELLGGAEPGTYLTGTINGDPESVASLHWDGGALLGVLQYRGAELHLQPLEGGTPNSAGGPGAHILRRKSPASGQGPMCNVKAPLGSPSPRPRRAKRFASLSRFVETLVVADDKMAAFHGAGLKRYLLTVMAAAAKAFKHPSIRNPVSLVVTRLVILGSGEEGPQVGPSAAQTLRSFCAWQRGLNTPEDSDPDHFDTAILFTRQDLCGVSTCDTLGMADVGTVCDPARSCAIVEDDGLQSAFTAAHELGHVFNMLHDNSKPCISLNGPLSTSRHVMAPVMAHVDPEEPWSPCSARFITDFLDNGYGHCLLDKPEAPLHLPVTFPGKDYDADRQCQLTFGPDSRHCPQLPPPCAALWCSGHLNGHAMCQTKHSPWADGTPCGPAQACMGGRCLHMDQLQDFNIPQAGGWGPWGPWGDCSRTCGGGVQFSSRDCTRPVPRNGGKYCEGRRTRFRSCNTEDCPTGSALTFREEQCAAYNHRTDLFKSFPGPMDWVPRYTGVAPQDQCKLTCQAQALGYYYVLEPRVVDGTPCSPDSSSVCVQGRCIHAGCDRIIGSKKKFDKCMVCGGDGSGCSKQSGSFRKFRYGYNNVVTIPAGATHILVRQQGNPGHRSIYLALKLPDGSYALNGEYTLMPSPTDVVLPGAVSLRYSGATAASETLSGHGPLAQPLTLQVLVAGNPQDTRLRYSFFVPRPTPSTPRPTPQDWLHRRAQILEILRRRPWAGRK
Description: The recombinant Agg-1 proteins pretreated with the various concentrations of the compound for 10 to 15 min. The reaction was initiated by addition of the WAAG-3R substrate at a final concentration of 25 uM. The reaction is monitored at excitation of 340 nm and emission of 420 nm over a period of 30 min in a fluorimeter (GeminiXS; Molecular Devices Corp., Sunnyvale, CA).

Sequence of 72 kDa type IV collagenase (P08253 whole entry): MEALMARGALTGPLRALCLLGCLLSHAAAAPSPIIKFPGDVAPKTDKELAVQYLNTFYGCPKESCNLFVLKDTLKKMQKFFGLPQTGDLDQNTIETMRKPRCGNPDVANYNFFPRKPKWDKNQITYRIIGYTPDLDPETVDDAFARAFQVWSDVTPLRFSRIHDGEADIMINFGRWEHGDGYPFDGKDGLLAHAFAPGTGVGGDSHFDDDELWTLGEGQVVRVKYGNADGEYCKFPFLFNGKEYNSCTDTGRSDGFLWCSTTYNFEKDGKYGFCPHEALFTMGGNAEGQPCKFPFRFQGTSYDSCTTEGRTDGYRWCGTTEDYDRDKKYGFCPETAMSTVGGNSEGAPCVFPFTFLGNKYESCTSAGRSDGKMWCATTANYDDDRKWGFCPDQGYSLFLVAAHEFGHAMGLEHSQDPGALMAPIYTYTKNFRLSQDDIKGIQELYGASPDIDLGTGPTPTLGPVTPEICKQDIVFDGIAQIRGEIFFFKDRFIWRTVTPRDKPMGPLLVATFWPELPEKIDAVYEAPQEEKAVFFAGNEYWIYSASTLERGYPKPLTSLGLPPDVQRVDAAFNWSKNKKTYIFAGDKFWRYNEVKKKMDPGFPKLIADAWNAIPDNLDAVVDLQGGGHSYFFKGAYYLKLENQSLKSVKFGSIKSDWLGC
Sequence of Disintegrin and metalloproteinase domain-containing protein 17 (P78536 whole entry, the tested form may be a part): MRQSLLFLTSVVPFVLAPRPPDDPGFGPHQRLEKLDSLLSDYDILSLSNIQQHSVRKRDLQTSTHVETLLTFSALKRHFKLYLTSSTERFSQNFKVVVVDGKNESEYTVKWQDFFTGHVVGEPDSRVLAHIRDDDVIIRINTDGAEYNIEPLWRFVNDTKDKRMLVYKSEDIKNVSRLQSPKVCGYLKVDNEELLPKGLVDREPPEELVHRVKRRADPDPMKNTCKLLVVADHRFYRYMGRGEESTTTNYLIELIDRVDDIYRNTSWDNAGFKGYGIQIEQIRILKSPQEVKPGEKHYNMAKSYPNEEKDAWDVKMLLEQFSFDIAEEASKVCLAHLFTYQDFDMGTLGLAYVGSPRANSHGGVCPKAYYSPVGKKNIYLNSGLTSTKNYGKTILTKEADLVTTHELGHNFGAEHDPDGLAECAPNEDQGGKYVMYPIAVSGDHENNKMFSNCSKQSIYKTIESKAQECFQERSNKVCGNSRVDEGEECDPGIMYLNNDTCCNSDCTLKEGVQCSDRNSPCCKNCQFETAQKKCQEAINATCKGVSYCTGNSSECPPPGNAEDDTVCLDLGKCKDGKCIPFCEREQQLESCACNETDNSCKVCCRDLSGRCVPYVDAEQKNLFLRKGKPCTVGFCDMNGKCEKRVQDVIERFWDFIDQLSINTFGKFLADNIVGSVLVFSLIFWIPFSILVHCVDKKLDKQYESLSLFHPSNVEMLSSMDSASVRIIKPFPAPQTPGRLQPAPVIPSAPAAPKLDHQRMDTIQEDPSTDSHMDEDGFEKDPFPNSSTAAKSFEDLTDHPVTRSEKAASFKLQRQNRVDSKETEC

For `CC#CCOc1ccc(S(=O)(=O)N2CCSC(C)(C)[C@@H]2C(=O)NO)cc1` [(3S)-4-{[4-(but-2-yn-1-yloxy)benzene]sulfonyl}-N-hydroxy-2,2-dimethylthiomorpholine-3-carboxamide], the IC50 [1] was 8.4 nM, the IC50 [2] was 26 nM and the IC50 (Matrilysin) was 26 nM. For the same compound, the IC50 [3] was 4.7 nM, the IC50 (Interstitial collagenase) was 6.6 nM and the IC50 [4] was 100 nM.
